Experimental data taken from PubChem BioAssay (NCI).
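Assay format: 96-well plates, 48-hour exposure. Definition used: TGI = concentration required for complete inhibition of growth.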

Assays:
Assay in all cases: growth of human tumour cells (NCI), 48 h
786-0 renal = test system: 786-0 renal
A498 renal = test system: A498 renal
A549 NSCLC = test system: A549 NSCLC
ACHN renal = test system: ACHN renal
CAKI-1 renal = test system: CAKI-1 renal
CCRF-CEM leukemia = test system: CCRF-CEM leukemia
COLO 205 colon = test system: COLO 205 colon
DLD-1 colon = test system: DLD-1 colon
DMS 114 small cell lung = test system: DMS 114 small cell lung
DMS 273 small cell lung = test system: DMS 273 small cell lung
EKVX NSCLC = test system: EKVX NSCLC
HCC-2998 colon = test system: HCC-2998 colon
HCT-116 colon = test system: HCT-116 colon
HCT-15 colon = test system: HCT-15 colon
HL-60(TB) leukemia = test system: HL-60(TB) leukemia
HOP-18 NSCLC = test system: HOP-18 NSCLC
HOP-62 NSCLC = test system: HOP-62 NSCLC
HOP-92 NSCLC = test system: HOP-92 NSCLC
HT29 colon = test system: HT29 colon
IGROV1 ovarian = test system: IGROV1 ovarian
K-562 leukemia = test system: K-562 leukemia
KM12 colon = test system: KM12 colon
KM20L2 colon = test system: KM20L2 colon
LOX IMVI melanoma = test system: LOX IMVI melanoma
LXFL 529 NSCLC = test system: LXFL 529 NSCLC
M14 melanoma = test system: M14 melanoma
M19-MEL melanoma = test system: M19-MEL melanoma
MALME-3M melanoma = test system: MALME-3M melanoma
MOLT-4 leukemia = test system: MOLT-4 leukemia
NCI-H226 lung = test system: NCI-H226 lung
NCI-H23 lung = test system: NCI-H23 lung
NCI-H460 lung = test system: NCI-H460 lung
NCI-H522 lung = test system: NCI-H522 lung
OVCAR-3 ovarian = test system: OVCAR-3 ovarian
OVCAR-4 ovarian = test system: OVCAR-4 ovarian
OVCAR-5 ovarian = test system: OVCAR-5 ovarian
OVCAR-8 ovarian = test system: OVCAR-8 ovarian
RPMI-8226 leukemia = test system: RPMI-8226 leukemia
RXF 393 renal = test system: RXF 393 renal
RXF-631 renal = test system: RXF-631 renal
SF-268 CNS = test system: SF-268 CNS
SF-295 CNS = test system: SF-295 CNS
SF-539 CNS = test system: SF-539 CNS
SK-MEL-2 melanoma = test system: SK-MEL-2 melanoma
SK-MEL-28 melanoma = test system: SK-MEL-28 melanoma
SK-MEL-5 melanoma = test system: SK-MEL-5 melanoma
SK-OV-3 ovarian = test system: SK-OV-3 ovarian
SN12C renal = test system: SN12C renal
SNB-19 CNS = test system: SNB-19 CNS
SNB-75 CNS = test system: SNB-75 CNS
SNB-78 CNS = test system: SNB-78 CNS
SR leukemia = test system: SR leukemia
SW-620 colon = test system: SW-620 colon
TK-10 renal = test system: TK-10 renal
U251 CNS = test system: U251 CNS
UACC-257 melanoma = test system: UACC-257 melanoma
UACC-62 melanoma = test system: UACC-62 melanoma
UO-31 renal = test system: UO-31 renal
XF 498 CNS = test system: XF 498 CNS

SMILES: Nc1c([N+](=O)[O-])nc(Cl)c2nncn12
- TGI (786-0 renal): > 100 µM
- TGI (A498 renal): > 100 µM
- TGI (A549 NSCLC): > 100 µM
- TGI (ACHN renal): > 100 µM
- TGI (CAKI-1 renal): > 100 µM
- TGI (CCRF-CEM leukemia): > 68.2 µM
- TGI (COLO 205 colon): > 65 µM
- TGI (DLD-1 colon): > 100 µM
- TGI (DMS 114 small cell lung): > 57.4 µM
- TGI (DMS 273 small cell lung): 31.3 µM
- TGI (EKVX NSCLC): > 100 µM
- TGI (HCC-2998 colon): > 100 µM
- TGI (HCT-116 colon): > 63.9 µM
- TGI (HCT-15 colon): 42.4 µM
- TGI (HL-60(TB) leukemia): > 100 µM
- TGI (HOP-18 NSCLC): > 100 µM
- TGI (HOP-62 NSCLC): > 100 µM
- TGI (HOP-92 NSCLC): > 100 µM
- TGI (HT29 colon): > 100 µM
- TGI (IGROV1 ovarian): > 100 µM
- TGI (K-562 leukemia): > 100 µM
- TGI (KM12 colon): > 100 µM
- TGI (KM20L2 colon): > 100 µM
- TGI (LOX IMVI melanoma): > 61.1 µM
- TGI (LXFL 529 NSCLC): > 100 µM
- TGI (M14 melanoma): > 100 µM
- TGI (M19-MEL melanoma): > 100 µM
- TGI (MALME-3M melanoma): > 100 µM
- TGI (MOLT-4 leukemia): > 100 µM
- TGI (NCI-H226 lung): > 100 µM
- TGI (NCI-H23 lung): > 100 µM
- TGI (NCI-H460 lung): > 100 µM
- TGI (NCI-H522 lung): > 100 µM
- TGI (OVCAR-3 ovarian): > 100 µM
- TGI (OVCAR-4 ovarian): > 100 µM
- TGI (OVCAR-5 ovarian): > 100 µM
- TGI (OVCAR-8 ovarian): > 100 µM
- TGI (RPMI-8226 leukemia): > 69.7 µM
- TGI (RXF 393 renal): > 100 µM
- TGI (RXF-631 renal): > 100 µM
- TGI (SF-268 CNS): > 100 µM
- TGI (SF-295 CNS): > 100 µM
- TGI (SF-539 CNS): > 100 µM
- TGI (SK-MEL-2 melanoma): > 100 µM
- TGI (SK-MEL-28 melanoma): > 100 µM
- TGI (SK-MEL-5 melanoma): > 100 µM
- TGI (SK-OV-3 ovarian): > 100 µM
- TGI (SN12C renal): > 100 µM
- TGI (SNB-19 CNS): > 100 µM
- TGI (SNB-75 CNS): > 77.7 µM
- TGI (SNB-78 CNS): > 100 µM
- TGI (SR leukemia): 41.9 µM
- TGI (SW-620 colon): > 100 µM
- TGI (TK-10 renal): > 100 µM
- TGI (U251 CNS): > 100 µM
- TGI (UACC-257 melanoma): > 100 µM
- TGI (UACC-62 melanoma): > 100 µM
- TGI (UO-31 renal): > 100 µM
- TGI (XF 498 CNS): > 100 µM
